The values below are quoted from earlier work in patent US20090285767A1, “USE OF OZONATED LIQUIDS AND PEROXIDES TO WHITEN TEETH” (priority 2008, published 2009).

Molecules are shown by their SMILES.

For this data set the following is noted: gaseous ozone, device of the Lynch '985 patent.

Take `O=[O+][O-]` [gaseous ozone, ozone]: the “whitening of extrinsic discoloration, effect on brown-colored melanoidins” value is given as “ability of gaseous ozone to whiten extrinsic discoloration”.
